The text below walks through data of patent publication US7964636B2, “Synthesis and use of novel inhibitors and inactivators of protein arginine deiminases” (University of South Carolina, priority 2005, dated 2011).

Each structure is given as a SMILES string. Like-named read-outs stand apart in the source and are kept apart here.

In assay [1] the target is T1, PAD4 (Homo sapiens, UniProt Q9UM07). To be noted: cited from earlier work.
Assay [2] addresses T1, PAD4. Put plainly: IC50 assays (Example 2). It is filed as biochemical. To be noted: for IC50: 10 mM BAEE; for inhibition at the highest concentration tested: 500 μM.
Procedure: BAEE was then added to a final concentration of 10 mM to initiate the reaction. Reactions were then quenched after a further 15 min by flash freezing. The amount of Cit produced in the reaction was quantified using our assay for Cit production.
Assay [3] has as its target T1, PAD4. Kind of assay: Time course assays / inactivation kinetics (Example 2). To be noted: 2 mM BAEE. It counts as biochemical.
For assay [4], the target named is T1, PAD4. Put plainly: Time course inhibition assays (Example 1). To be noted: 10 mM BAEE, 10 mM CaCl2.
Procedure: Time course experiments were performed in assay buffers containing 10 mM BAEE, 100 mM HEPES (pH 7.6), 50 mM NaCl, 500 μM TCEP and 10 mM CaCl2 in the presence of various amounts of inhibitors. The assay buffers were pre-incubated at 37° C. for 10 minutes. […] At different time points, 60 μl of the reactions was withdrawn and quenched by flash freezing in liquid nitrogen. Color development and absorbance measurement at 540 nm of the samples were done as described in IC50 assays. […] [P]=vi[1−exp(−kobst)]/kobs (Eq. 2) where vi is the initial velocity, kobs is the pseudo-first-order rate constant, and [P] refers to the concentration of citrulline produced during the reaction process.
The target in assay [5] is T1, PAD4. Kind of assay: H3-amidine inhibition assays. It counts as biochemical. To be noted: BAEE substrate; 0, 5, 10 mM H3-amidine; read-out: Kis (linear competitive inhibition). The protocol: Initial rates were determined in the absence and presence of various amounts of H3-amidine (0, 5, 10 mM), using BAEE as the substrate. […] After incubation at 37° C. for 15 min, the reactions were quenched and the amount of Cit produced quantified. The initial rates derived from these experiments were fit by non-linear least fit squares to equations representing linear competitive inhibition (Equation 4) and linear noncompetitive inhibition (Equation 5), using the using the GraFit™ version 5.0.11 software package. v=Vm[S]/(Km(1+[I]/Kis)+[S]) (Eq. 4) v=Vm[S]I(Km(1+[I]/Kis)+[S](1+[I]/Kii)) (Eq. 5)
Kii represents Ki intercept and Kis represents Ki slope. Comparisons of the standard errors derived from fits of the data to Equations 4 and 5 are most consistent with H3-amidine being a competitive inhibitor.

Assay [6] addresses T1, PAD4. Put plainly: Inhibition assays with compound 1 (mode of inhibition, BAEE substrate). It is filed as biochemical. To be noted: 0, 5, 10 mM compound 1, read-out: Kis (linear competitive inhibition).
Assay [7] addresses T1, PAD4. Put plainly: IC50 assays of compounds 1, 2 and 3 (Example 1). Conditions: pre-incubation with PAD4 and Ca2+ (10 mM) for 10 min; BAEE 1 mM final; 20 min.
Procedure: PAD4 used in this work was GST-cleaved full-length PAD4 that was purified. A recombinant human PAD4 Escherichia coli expression system that was obtained from the Yamada group was transformed into E. coli Rosetta cells (EMD Biosciences) for the expression of fall-length PAD4 with an 8-residue N-terminal linker that is fused in frame to a PreScission protease cleavable GST tag.
The aforementioned reaction mixtures were pre-incubated with PAD4 (0.5 μM) at 37° C. for 10 minutes prior to the addition of BAEE (1 mM final concentration) to initiate the reaction. After 20 minutes the reactions were quenched by flash freezing in liquid nitrogen. […] The absorbance at 540 μm was then measured and compared to a Cit standard curve to determine the concentration of Cit produced during the course of the reactions.
In assay [8] the test system is PAD4. To be noted: known PAD inhibitor; cited from earlier work.
Setting [9] is: preincubation with PAD4 in 10 mM calcium for 15 min, read-out: IC50.

T1 sequence (Q9UM07 whole entry): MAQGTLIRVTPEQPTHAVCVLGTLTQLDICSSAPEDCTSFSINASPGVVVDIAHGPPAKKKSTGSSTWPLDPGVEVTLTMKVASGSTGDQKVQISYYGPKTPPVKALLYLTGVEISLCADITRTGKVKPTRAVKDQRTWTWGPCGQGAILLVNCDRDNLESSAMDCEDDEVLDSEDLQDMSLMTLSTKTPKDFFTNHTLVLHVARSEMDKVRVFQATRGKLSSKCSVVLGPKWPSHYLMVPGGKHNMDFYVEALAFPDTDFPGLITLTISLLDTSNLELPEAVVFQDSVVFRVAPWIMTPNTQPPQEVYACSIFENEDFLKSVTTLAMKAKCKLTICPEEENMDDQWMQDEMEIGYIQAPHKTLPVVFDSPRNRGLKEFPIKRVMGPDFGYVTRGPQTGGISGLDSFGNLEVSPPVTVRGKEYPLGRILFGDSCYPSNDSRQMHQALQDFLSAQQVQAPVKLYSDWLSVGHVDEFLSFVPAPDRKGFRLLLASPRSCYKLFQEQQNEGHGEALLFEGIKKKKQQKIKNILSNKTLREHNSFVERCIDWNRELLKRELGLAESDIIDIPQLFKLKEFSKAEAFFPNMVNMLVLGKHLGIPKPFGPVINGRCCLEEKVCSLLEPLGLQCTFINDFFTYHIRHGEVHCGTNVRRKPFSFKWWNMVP

For orientation: kinact/KI means the maximal inactivation rate divided by the concentration that gives half of it. Take `N=C(N)CCl` [2-chloroacetamidine]: at PAD4 [1], the Ki is 20 mM. Besides, the kinact/KI on PAD4 [1] (reported by the Fast group) was 35 M⁻¹ min⁻¹.

As a reminder, the IC50 is the point on the concentration scale where inhibition reaches its midpoint. Take `N=C(CCl)NCC[C@H](NC(=O)c1ccccc1)C(N)=O` [Cl2-amidine, N-α-benzoyl-N^4-(2-chloro-1-iminoethyl)-L-Dab amide]: the IC50 at PAD4 [2] (setting [9]) stood at 585 ± 65 µM.

On to `NC(=O)[C@H](CCCNC(=O)CCl)NC(=O)c1ccccc1` [Cl3-acetamide, N-α-benzoyl-N^5-(2-chloroacetyl)-L-Orn amide], for which the “inhibition at the highest concentration tested” value on PAD4 [2] was “no inhibition”. Moreover, on PAD4 [2] (setting [9]), the 50% inhibitory concentration (IC50) is more than 500 µM.

As to `N=C(CCl)NCCCC[C@H](NC(=O)c1ccccc1)C(N)=O` [Cl4-amidine, N-α-benzoyl-N^6-(2-chloro-1-iminoethyl)-L-Lys amide], the IC50 at PAD4 [2] (setting [9]) is 640 ± 10 µM.

Take `N=C(CF)NCC[C@H](NC(=O)c1ccccc1)C(N)=O` [F2-amidine, N-α-benzoyl-N^4-(2-fluoro-1-iminoethyl)-L-Dab amide]: the observed activity on PAD4 [2] (at 1000 μM) was 93 % of control. Also, the IC50 on PAD4 [2] (setting [9]) was more than 1000 µM. Further, the “time course of product formation” value on PAD4 [3] was “linear with respect to time”.

Consider `NC(=O)[C@H](CCCNC(=O)CF)NC(=O)c1ccccc1` [F3-acetamide, N-α-benzoyl-N^5-(2-fluoroacetyl)-L-Orn amide], for which, on PAD4 [2], the “inhibition at the highest concentration tested” value is on record as “no inhibition”. The IC50 on PAD4 [2] (IC50, preincubation with PAD4 in 10 mM calcium for 15 min) is more than 500 µM.

Consider `N=C(CF)NCCC[C@H](NC(=O)c1ccccc1)C(N)=O` [F3-amidine, N-α-benzoyl-N^5-(2-fluoro-1-iminoethyl)-L-ornithine amide], for which the “time dependence of inhibition (progress curves)” value on PAD4 [4] is “time dependent inhibition properties”.

`N=C(CF)NCCCC[C@H](NC(=O)c1ccccc1)C(N)=O` [F4-amidine, N-α-benzoyl-N^6-(2-fluoro-1-iminoethyl)-L-Lys amide]: on PAD4 [2] (setting [9]), the concentration for half-maximal inhibition (IC50) was 655 ± 100 µM.

In the case of `CC(=N)NCC[C@H](NC(=O)c1ccccc1)C(N)=O` [H2-amidine, N-α-benzoyl-N^4-(1-iminoethyl)-L-Dab amide], at PAD4 [2] (setting [9]), the IC50 was more than 1000 µM. On PAD4 [3], the “time course of product formation” value is reported as “linear with respect to time”.

For the compound `CC(=N)NCCC[C@H](NC(=O)c1ccccc1)C(N)=O` [H3-amidine, N-α-benzoyl-N^5-(1-iminoethyl)-L-Orn amide], the IC50 on PAD4 [2] (setting [9]) is more than 1000 µM. Also, the “time course of product formation” value at PAD4 [3] is given as “linear with respect to time”. For the same compound, the Ki on PAD4 [5] was 3.2 ± 0.9 mM.

Consider `CC(=N)NCCCC[C@H](NC(=O)c1ccccc1)C(N)=O` [H4-amidine, N-α-benzoyl-N^6-(1-iminoethyl)-L-Lys amide], for which the IC50 at PAD4 [2] (setting [9]) is more than 1000 µM. Besides, on PAD4 [3], the “time course of product formation” value is “linear with respect to time”.

In the case of `CC(=N)NCCC[C@H](NC(=O)c1ccccc1)C(=O)O` [H-Amidine, N-α-benzoyl-N^5-(1-iminoethyl)-L-ornithine], the Ki at PAD4 [6] worked out at 1.7 ± 0.2 mM. The “time dependence of inhibition (progress curves)” value on PAD4 [4] is on record as “does not display time dependent inhibitory properties”. At PAD4 [7], the midpoint of inhibition, the IC50, lay at 4.3 ± 0.7 mM.

Regarding `CC(=O)O[C@H]1C(=O)[C@@]2(C)[C@H]([C@H](OC(=O)c3ccccc3)[C@]3(O)C[C@H](OC(=O)[C@H](O)[C@@H](NC(=O)c4ccccc4)c4ccccc4)C(C)=C1C3(C)C)[C@]1(OC(C)=O)CO[C@@H]1C[C@@H]2O` [taxol], the IC50 with PAD4 [8] is approximately 5 mM.
